Results published in ChEMBL document CHEMBL1201862, “PubChem BioAssay data set” (2004).
Activity calls are given as the source filed them.

Key:
Protein RecA = molecular target: T1, Protein RecA (Mycobacterium tuberculosis, UniProt P9WHJ3); assay: Fluorescence Cell-Free Homogeneous Dose Retest to Identify Inhibitors of RecA-Intein Splicing Activity. [Related pubchem assays (depositor defined):AID2097, AID2223, AID489010, AID492950]; assay type: functional
T1 sequence (P9WHJ3 whole entry): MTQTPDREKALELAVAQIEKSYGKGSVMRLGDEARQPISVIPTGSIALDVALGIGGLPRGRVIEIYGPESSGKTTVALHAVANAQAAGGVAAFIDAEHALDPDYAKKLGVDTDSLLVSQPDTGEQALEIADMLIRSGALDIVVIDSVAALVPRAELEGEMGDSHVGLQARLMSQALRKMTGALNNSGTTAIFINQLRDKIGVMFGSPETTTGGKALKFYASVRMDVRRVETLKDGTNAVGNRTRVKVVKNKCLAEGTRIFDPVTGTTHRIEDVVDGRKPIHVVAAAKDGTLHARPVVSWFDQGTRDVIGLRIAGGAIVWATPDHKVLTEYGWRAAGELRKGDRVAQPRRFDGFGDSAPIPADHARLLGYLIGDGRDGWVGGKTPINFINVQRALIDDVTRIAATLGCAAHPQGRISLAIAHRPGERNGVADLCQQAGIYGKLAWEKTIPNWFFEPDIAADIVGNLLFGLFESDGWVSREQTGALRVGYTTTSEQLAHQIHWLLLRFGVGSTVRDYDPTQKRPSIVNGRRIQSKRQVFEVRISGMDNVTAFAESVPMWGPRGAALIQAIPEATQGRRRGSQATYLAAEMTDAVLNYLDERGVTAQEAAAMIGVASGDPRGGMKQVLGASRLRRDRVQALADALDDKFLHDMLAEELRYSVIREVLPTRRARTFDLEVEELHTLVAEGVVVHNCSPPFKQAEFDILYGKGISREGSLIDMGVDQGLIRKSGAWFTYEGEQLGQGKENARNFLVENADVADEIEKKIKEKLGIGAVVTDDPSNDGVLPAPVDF

Protein skinhead-1 = molecular target: T2, Protein skinhead-1 (Caenorhabditis elegans, UniProt P34707); assay type: functional
T2 sequence (P34707 whole entry): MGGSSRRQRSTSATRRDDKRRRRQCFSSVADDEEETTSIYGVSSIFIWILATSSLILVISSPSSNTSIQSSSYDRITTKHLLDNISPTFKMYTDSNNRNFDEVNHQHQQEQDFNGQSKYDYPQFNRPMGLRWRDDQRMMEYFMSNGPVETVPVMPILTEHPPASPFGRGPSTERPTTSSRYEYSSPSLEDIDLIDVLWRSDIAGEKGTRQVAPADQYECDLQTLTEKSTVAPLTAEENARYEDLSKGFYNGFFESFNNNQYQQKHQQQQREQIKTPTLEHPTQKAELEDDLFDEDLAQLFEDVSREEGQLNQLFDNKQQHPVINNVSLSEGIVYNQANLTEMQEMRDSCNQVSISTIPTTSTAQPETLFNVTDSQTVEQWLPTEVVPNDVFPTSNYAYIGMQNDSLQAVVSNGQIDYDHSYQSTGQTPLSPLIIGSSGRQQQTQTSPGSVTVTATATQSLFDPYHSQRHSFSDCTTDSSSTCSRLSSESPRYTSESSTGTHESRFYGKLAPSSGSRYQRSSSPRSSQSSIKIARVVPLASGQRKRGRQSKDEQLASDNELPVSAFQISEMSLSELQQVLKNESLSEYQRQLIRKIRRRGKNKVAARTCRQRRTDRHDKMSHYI

[1] = molecular target: T3, Replicative DNA helicase DnaB (Mycobacterium tuberculosis, UniProt P9WMR3); assay: DnaB intein splicing inhibitors, dose response, biochemical, cell-free fluorescence (AID 449749); assay type: functional
T3 sequence (P9WMR3 whole entry): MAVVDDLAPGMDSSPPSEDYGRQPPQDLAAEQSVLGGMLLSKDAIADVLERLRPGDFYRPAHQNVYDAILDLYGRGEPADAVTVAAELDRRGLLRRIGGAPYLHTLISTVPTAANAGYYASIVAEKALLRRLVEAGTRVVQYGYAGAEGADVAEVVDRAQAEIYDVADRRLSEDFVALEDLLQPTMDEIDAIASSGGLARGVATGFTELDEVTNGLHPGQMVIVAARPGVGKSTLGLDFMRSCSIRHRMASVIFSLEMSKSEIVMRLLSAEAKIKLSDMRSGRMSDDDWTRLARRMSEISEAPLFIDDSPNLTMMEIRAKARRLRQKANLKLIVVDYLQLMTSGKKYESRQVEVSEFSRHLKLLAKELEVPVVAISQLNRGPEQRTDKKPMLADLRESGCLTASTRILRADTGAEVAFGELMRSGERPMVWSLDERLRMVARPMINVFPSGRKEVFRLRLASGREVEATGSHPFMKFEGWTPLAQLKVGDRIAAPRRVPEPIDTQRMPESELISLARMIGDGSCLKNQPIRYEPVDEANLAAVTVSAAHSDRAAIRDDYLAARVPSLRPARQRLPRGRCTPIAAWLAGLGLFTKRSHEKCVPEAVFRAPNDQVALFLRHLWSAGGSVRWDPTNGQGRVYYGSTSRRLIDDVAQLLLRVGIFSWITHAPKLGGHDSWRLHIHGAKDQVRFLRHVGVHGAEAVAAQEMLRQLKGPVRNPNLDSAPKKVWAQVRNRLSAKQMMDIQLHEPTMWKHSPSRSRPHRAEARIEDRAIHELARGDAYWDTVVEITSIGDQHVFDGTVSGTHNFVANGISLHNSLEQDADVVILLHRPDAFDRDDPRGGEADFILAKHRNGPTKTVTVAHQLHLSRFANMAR

[2] = NIH-3T3 fibroblast cytotoxicity, dose response, cytotoxicity control, cell-based, fluorescence, Alamar Blue, secondary assay (AID 2327); assay type: functional;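 also: NIH-3T3 mouse fibroblasts cultured with fluconazole at 8 µg/mL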
BJ [3] = assay: cells; assay type: functional, cell-based; conditions: Homo sapiens
BJ [4] = assay: BJ-TERT-LT-ST fibroblast viability loss – cell-based, RAS-independent, luminescence, dose response (AID 1935); assay type: functional; conditions: Homo sapiens;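 also: BJ fibroblasts immortalized with TERT plus LT and ST oncogenes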
[5] = fluconazole-exposed Candida albicans growth modulators – fluorescence, retest, confirmation (AID 2467); assay type: functional, cell-based
BJ [6] = assay: BJ-TERT fibroblast viability loss – cell-based, RAS-independent, luminescence, dose response (AID 1933); assay type: functional; conditions: Homo sapiens
[7] = DRD fibroblast viability loss – cell-based, non-viral oncogenic, luminescence, dose response (AID 1934); assay type: functional; conditions: Homo sapiens
[8] = molecular target: T4, Ubiquitin-conjugating enzyme E2 N (Homo sapiens, UniProt P61088); assay type: functional;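 also: Dose-response confirmation in a TR-FRET assay detecting UBC13-driven polyubiquitin chain formation, inhibition measured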
T4 sequence (P61088 whole entry): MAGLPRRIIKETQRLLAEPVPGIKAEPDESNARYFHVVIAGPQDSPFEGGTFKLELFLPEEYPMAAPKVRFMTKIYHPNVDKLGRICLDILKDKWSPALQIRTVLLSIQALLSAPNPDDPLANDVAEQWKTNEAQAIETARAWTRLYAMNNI

[9] = molecular target: T5, Heat shock factor protein 1 (Mus musculus, UniProt P38532); assay: decrease of HSF1-responsive luciferase luminescence – cell-based, NIH3T3, dose retest, confirmation (AID 2382); assay type: functional;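 also: NIH3T3 fibroblasts with HSF1-driven luciferase reporter stressed by proteasome inhibitor MG132; luminescence from HSF1-driven luciferase expression after 8 hours of MG132 stress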
T5 sequence (P38532 whole entry): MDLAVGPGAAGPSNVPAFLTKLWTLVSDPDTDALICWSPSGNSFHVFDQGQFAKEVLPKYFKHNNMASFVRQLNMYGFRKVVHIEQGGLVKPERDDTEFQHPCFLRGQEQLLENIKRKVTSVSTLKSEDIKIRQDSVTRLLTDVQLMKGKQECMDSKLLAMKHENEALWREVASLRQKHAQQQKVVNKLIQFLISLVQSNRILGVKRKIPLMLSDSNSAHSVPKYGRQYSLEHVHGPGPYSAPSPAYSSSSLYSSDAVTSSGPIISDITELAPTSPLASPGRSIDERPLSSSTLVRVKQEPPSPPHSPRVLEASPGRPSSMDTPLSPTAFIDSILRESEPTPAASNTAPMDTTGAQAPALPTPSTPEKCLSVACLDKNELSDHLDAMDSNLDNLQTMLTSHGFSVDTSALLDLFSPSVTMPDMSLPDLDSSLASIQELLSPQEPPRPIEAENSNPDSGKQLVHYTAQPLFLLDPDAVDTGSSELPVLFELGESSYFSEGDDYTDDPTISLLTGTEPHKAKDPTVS

[10] = off-target signal loss in HeLa-CEM21 co-culture – HeLa F-luc CTL cells, cherry-picked, counter-screen for HIV-1 Env fusion inhibitor project, dose response (AID 652040); assay type: functional, cell-based;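 also: potency for signal decrease marking cytotoxic or nonspecific inhibition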
[11] = intracellular Trypanosoma cruzi inhibitors in host cells – cell-based, plate reader, cherry-pick samples, set 3, dose response (AID 651818); assay type: functional;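 also: compounds incubated with infected cells for about four days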
[12] = blockers of HIV-1 envelope-mediated cell-cell fusion – cherry-pick, dose response (AID 652057); assay type: functional, cell-based
[13] = blockers of HIV-1 ZM109 envelope-driven cell-cell fusion – HeLa effector, CEM target cells, luciferase, cherry-pick, dose response (AID 652058); assay type: functional, cell-based;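 also: luciferase signal from HIV-1 Env mediated cell-cell fusion of effector and target cells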

CCCCCCn1c(N2CCC(C(N)=O)CC2)nc2c1c(=O)n(C)c(=O)n2C
EC50 (Protein RecA): > 380 µM (inactive) | IC50 (Protein skinhead-1): > 100 µM (inactive) | AC50 [1]: > 380 µM (inactive)

Cc1noc(/C=C/c2ccccn2)c1[N+](=O)[O-]
EC50 [2]: 3.04 µM (inconclusive) | EC50 (BJ [3]): 24.5 µM (inconclusive) | EC50 (BJ [4]): 9.6 µM (active) | EC50 [5]: 2.97 µM (active) | EC50 (BJ [6]): 8.5 µM (active) | EC50 [7]: 9.44 µM (active)

Cc1ccc(C(=O)NCCCNCCCN(C)C)cn1
IC50 [8]: > 20 µM (inactive)

CCOc1cc2c(cc1OCC)C(C(=O)O)C(c1cc(OC)c(OC)c(OC)c1)N(C)C2=O (stereo not drawn)
IC50 (Protein skinhead-1): > 100 µM (inactive)

CCc1ccc(-c2cc3c(=O)n(CC(=O)NCCCN4CCC(Cc5ccccc5)CC4)nc(C)n3n2)cc1
IC50 [8]: > 20 µM (inactive)

COc1ccc(C(CNC(=O)c2ccc(-c3nc4ccccc4s3)o2)N2CCCC2)cc1 (stereo not drawn)
IC50 [8]: > 20 µM (inactive)

CSc1cccc(NC(=O)c2cccc3cccnc23)c1
IC50 (Protein skinhead-1): 14.7 µM (active)

CCOC(=O)c1ccccc1NC(=O)Cc1ccccc1OC
IC50 (Protein skinhead-1): > 100 µM (inactive)

CSc1nsc(SCc2ccc(F)cc2)n1
IC50 (Protein skinhead-1): 18.9 µM (active)

COc1ccc(N2CCN(CCCn3c(=S)[nH]c4ncccc4c3=O)CC2)cc1
EC50 (BJ [3]): 44.2 µM (active) | EC50 [9]: > 195 µM (not active) | EC50 (BJ [4]): > 150 µM (not active) | EC50 (BJ [6]): > 150 µM (not active) | EC50 [7]: 58.9 µM (active)

Cc1onc(-c2ccccc2)c1C(=O)OCCOc1cccc(Cl)c1
AC50 [10]: > 70 µM (inactive)

CN(C)CCCNC(=O)C(=O)NCC1OCCN1S(=O)(=O)c1cccs1 (stereo not drawn)
IC50 [8]: > 20 µM (inactive)

CC1=Nc2cc(C(=O)NCCCOC(C)C)ccc2Sc2ccc(C)cc21
EC50 (BJ [3]): 3.85 µM (inconclusive) | EC50 (BJ [4]): 2.75 µM (active) | EC50 (BJ [6]): 2.72 µM (active) | EC50 [7]: 2.86 µM (active)

N#Cc1ccsc1NC(=O)C1CCN(C(=O)c2ccc(F)cc2)CC1
IC50 [8]: > 20 µM (inactive)

O=C(CN1CCOCC1)c1cccc2ccccc12
IC50 (Protein skinhead-1): > 100 µM (inactive)

CCOc1ncccc1C(=O)N1CCN(c2cccc(C)c2C)CC1
EC50 (BJ [3]): 37.3 µM (inconclusive) | EC50 (BJ [4]): 0.349 µM (inconclusive) | EC50 (BJ [6]): 0.541 µM (active) | EC50 [7]: 0.458 µM (active)

O=C(c1nc[nH]c1C(=O)N1CCc2ccccc2C1)N1CCc2ccccc2C1
IC50 (Protein skinhead-1): > 100 µM (inactive)

FC(F)(F)c1cc(CCN2CCNC[C@@H]2c2ccccc2)cc(C(F)(F)F)c1
IC50 [8]: > 20 µM (inactive)

Cc1ccc(/C=N/NC(=O)c2csc3c2CCCC3)cc1
EC50 (BJ [3]): 54.1 µM (active) | EC50 (BJ [4]): 93.4 µM (active) | EC50 (BJ [6]): 2.46 µM (active) | EC50 [7]: 1.9 µM (active)

C[C@H](CO)N1C[C@H](C)[C@@H](CN(C)Cc2ccc(C(=O)Nc3ccccc3N)cc2)Oc2c(NC(=O)c3cnccn3)cccc2C1=O
AC50 [11]: 2.45 µM (active)

C[C@H](CO)N1C[C@H](C)[C@H](CN(C)C(=O)Nc2ccc(C(F)(F)F)cc2)Oc2c(NC(=O)c3nc4ccccc4s3)cccc2C1=O
AC50 [11]: 2.35 µM (active)

Cc1ccc(S(=O)(=O)Nc2ccc3c(c2)C(=O)N([C@H](C)CO)C[C@H](C)[C@H](CN(C)Cc2ccc(C(F)(F)F)cc2)OCCCC[C@@H](C)O3)cc1
AC50 [11]: 3.01 µM (active)

C[C@H](CO)N1C[C@H](C)[C@@H](CN(C)Cc2ccc(C(F)(F)F)cc2)Oc2c(NC(=O)Nc3ccc(F)cc3)cccc2C1=O
AC50 [11]: 5.99 µM (active)

C[C@H](CO)N1C[C@H](C)[C@H](CN(C)Cc2ccc3c(c2)OCO3)Oc2c(NC(=O)Nc3ccc(C(F)(F)F)cc3)cccc2C1=O
AC50 [11]: 0.956 µM (active)

C[C@@H]1CN([C@H](C)CO)C(=O)c2cccc(NS(=O)(=O)c3ccc(Cl)cc3)c2O[C@@H]1CN(C)Cc1ccccc1
AC50 [11]: 20 µM (inactive)

COc1ccc(S(=O)(=O)Nc2ccc3c(c2)CC(=O)N([C@H](C)CO)C[C@@H](C)[C@H](CN(C)CC2CCCCC2)O3)cc1
AC50 [11]: 2.97 µM (active)

C[C@@H]1CN([C@@H](C)CO)C(=O)c2cccc(NC(=O)CCCCCC(=O)Nc3ccccc3N)c2O[C@@H]1CN(C)Cc1ccc(Cl)c(Cl)c1
AC50 [11]: 2.51 µM (active)

CC1CCN(C(=O)c2ncn3c2C(=O)NC[C@@H]3C)CC1
AC50 [12]: 3.59 µM (active) | AC50 [13]: 15.7 µM (active) | AC50 [10]: 18 µM (active)

CN(C[C@H](Cc1ccccc1)N(C[C@H](c1ccccc1)N(CCc1ccccc1)N=O)N=O)N=O
AC50 [12]: 7.62 µM (active) | AC50 [13]: 9.49 µM (active) | AC50 [10]: 35.2 µM (active)
